Laboratory results reported in publication PMC8316980 (ACS chemical neuroscience, 2019).

Target: T1, MD-2 (myeloid differentiation protein 2) (Homo sapiens, UniProt Q9Y6Y9)
T1 sequence (Q9Y6Y9 19-160): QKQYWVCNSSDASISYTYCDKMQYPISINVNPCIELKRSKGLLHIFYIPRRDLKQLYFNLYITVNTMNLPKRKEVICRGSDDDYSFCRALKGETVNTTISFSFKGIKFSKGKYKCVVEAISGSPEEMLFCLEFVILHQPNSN
Test: intrinsic fluorescence quenching titration
Format: binding

**Q.** How did the Kd turn out when `CN[C@@H](C)Cc1ccccc1` [methamphetamine] was run?
**A.** 6.7 ± 0.6 µM
